# Reference: patent US12377092B2, “Polycomb inhibitors and uses thereof” (FONDAZIONE ISTITUTO FIRC DI ONCOLOGIA MOLECOLARE (IFOM), priority 2017, dated 2025)
# Entries after “also recorded” stand apart in the source; their conditions may differ.
# Columns and labels:
# [1] = test system: EndMT markers (Klf4, Sca1 and Fsp1); assay: Real time (RT-PCR) analysis of EndMT markers, wild type and CCM3 knock out immortalized lung endothelial cells; type: cell-based, mouse; conditions: 72 hours
# Protocol: (§1) Cells were seeded 6.3×10^4 cells/cm^2. The day after, PTC209 and UNC1999 were added to the confluent cells. Drugs were left for one or three days depending on the aim of the experiment. Final concentrations used for the two drugs were: 1 uM PTC209 and 5 uM UNC1999.
# RNA extraction was performed both with (A) RNeasy kits (Promega) or (B) RNAeasy Mini Kit (QIAGEN). The latter allows also the extraction of proteins from the same sample. The RNA (500 ng) was reverse transcribed with random hexamers (High Capacity cDNA Archive kits; Applied Biosystems) in a final volume of 30 uL. Reaction were made with a thermocycler (Eppendorf) 10 min at 25° C. followed by 2 hours at 37° C. cDNA (5 ng) was amplified in triplicate in a reaction volume of 15 uL using TaqMan Gene Expression Assays (Applied Biosystems) in a ABI/Prism 7900 HT using a pre PCR step of 10 min at 95° C., followed by 40 cycles of 15 seconds at 95° C. and 60 seconds at 60° C. For each sample, the expression level was determined with the comparative threshold cycle (Ct) method, and normalized to the housekeeping genes encoding 18S, glyceraldehyde-3-phosphate dehydrogenase (GAPDH) and hypoxanthine-guanine phosphoribosyltransferase (hprt1). Ct or threshold cycle, represents the PCR cycle at which an increase in reporter fluorescence above a base-line signal can first be detect.
# (§2) Wild type and CCM3 knock out cells were treated with either PTC209 or DMSO starting from the day after seeding, when cells were confluent. For this experiment cells were lysed for western blot and real-time analysis after 72 hours of treatment to check a long-term effect of PTC209.
# (§3) To perform these experiments, immortalized lung endothelial cells both wild type and CCM3 knock out were treated, with the same experimental strategy used for PTC209, with UNC1999 for 72 hours and subsequently lysed for western blot and real time analysis. UNC1999 was used in its specific optimal concentration, which was different to PTC209. As control DMSO was given to the cells in a volume equal to the volume of DMSO in which UNC1999 was previously dissolved to rich the optimal concentration.
# (§4) Briefly, wild type and CCM3 knock out cells were treated with either PTC209, UNC1999 or a combination of the two. PTC209 and UNC1999 were administrated at the same concentration used for the single treatment and DMSO was given as control in a volume equal to the sum of volumes of DMSO in which UNC1999 and PTC209 were previously dissolved.
# [2] = test system: EndMT markers (Klf4, Sca1 and Fsp1); assay: Western blot analysis of EndMT markers, wild type and CCM3 knock out immortalized lung endothelial cells; type: cell-based, mouse; conditions: 72 hours
# Protocol: as §1
# (§5) Confluent cells were lysed with boiling modified Laemi sample Buffer (2% SDS, 20% glycerol, and 125 mM Tris-HCl, pH 6.8). Lysates were incubated for 10 minutes at 100° C. to allow proteins denaturation. Protein concentration was estimated using the BCA Protein Assay Kit (Pierce). Equal amount of proteins was loaded on a gel, separated by SDS-PAGE and transferred to a Protran Nitrocellulose Membrane (Whatman) 0.2 um pores. The membranes were blocked for 1 hour at RT in Tris Buffered Saline (TBS: NaCl 150 mM, Tris-HCl 10 mM pH 7.4) plus 0.1% Tween-20 containing 5% BSA or milk. The membranes were incubated with primary antibodies diluted in TBST (TBS plus 0.1% Tween-20) containing 5% of either BSA or milk overnight at 4° C. Next, membranes were rinsed three times with TBST for 5 minutes each and incubated for 45 minutes at RT with HRP-linked secondary antibodies diluted in TBST containing 5% BSA/milk. Membranes were rinsed three times with TBST for 5 minutes each and specific bindings were detected by enhanced chemiluminescence (ECL) system (Amersham Bioscience) using ChemiDoc XRS gel imaging system (Bio-Rad).
# as §2, §3, §4
# VE-cadherin = assay: Western blot analysis of VE-cadherin, CCM3 knock out cells; type: cell-based, mouse; conditions: 72 hours
# Protocol: as §1
# as §5, with “The membranes were incubated with primary antibodies diluted in TBST (TBS plus 0.1% Tween-20) containing 5% of either BSA or milk overnight at 4° C. Next, membranes were rinsed three times with TBST for 5 minutes each and incubated for 45 minutes at RT with HRP-linked secondary antibodies diluted in TBST containing 5% BSA/milk.” left out
# Experiment with combined PTC209 and UNC1999 treatments was repeated with the same experimental conditions described before and junction organisation was analysed through VE-cadherin staining and protein expression analysis (FIG. 19).
# PRC2 = conditions: Konze et al., 2013; cited from earlier work
# [3] = CCM3 knock out cells, 1 uM PTC209, 5 uM UNC1999, vs DMSO
# [4] = wild type cells (physiological condition), CCM3 model
compound,measurement,setting,value
"CCCc1cc(C)[nH]c(=O)c1CNC(=O)c1cc(-c2ccc(N3CCN(C(C)C)CC3)nc2)cc2c1cnn2C(C)C [UNC1999, N-[(6-methyl-2-oxo-4-propyl-1H-pyridin-3-yl)methyl]-1-propan-2-yl-6-[6-(4-propan-2-ylpiperazin-1-yl)pyridin-3-yl]indazole-4-carboxamide]","Klf4, Sca1 and Fsp1 transcripts (real time analysis)",[1]; [3],downregulation
same,Klf4 transcript (real time analysis),[1]; [4],not influenced
same,"EndMT markers (Klf4, Sca1, Fsp1) protein expression (western blot)",[2]; [3],downregulation; also recorded: inhibition of the upregulation
same,downregulation of EndMT protein and gene expressions compared with PTC209,"[2]; CCM3 knock out cells, 5 uM UNC1999, western blot and real time",not as strong as the downregulation observed upon administration of PTC209
same,Klf4 protein (western blot),[2]; [4],not influenced
same,VE-cadherin protein expression level (western blot),VE-cadherin,did not show any rescue
same,Hystone-methyl transferase activity of PRC2,PRC2,blocked
